Results on seven molecules are retold here after article PMC10384408, “Anticancer Tungstenocenes with a Diverse Set of (O,O–), (O,S–) and (O,N–) Chelates—A Detailed Biological Study Using an Improved Evaluation via 3D Spheroid Models” (Pharmaceutics, 2023).

For data set [1], the system named is A549 (non-small cell lung carcinoma) cells. The data set is described as follows: MTT cytotoxicity assay, A549 monolayer. Format: cell-based, human. Here is the method:
(§1) CH1/PA-1 (ovarian teratocarcinoma), SW480 (colon carcinoma) and A549 (non-small cell lung cancer) cells were maintained as described in the reference. IMR-90 human fetal lung fibroblasts (from the European Collection of Authenticated Cell Cultures, Porton Down, Salisbury, UK) were cultured in Stable Cell^TM DMEM/F12 supplemented with 0.01 mg/mL human recombinant insulin (both purchased from Sigma-Aldrich) and 10% fetal bovine serum (FBS, BioWest, Nuaillé, France). Human colon carcinoma cell lines HCT116 and HT29 (both kindly provided by the Institute of Cancer Research, Department of Medicine I, Medical University of Vienna, Austria) were cultured in McCoy’s 5a medium supplemented with 4 mM L-glutamine (both purchased from Sigma-Aldrich) and 10% FBS. MCF-7 human breast adenocarcinoma cells (kindly provided by M. Ogris, Department of Pharmaceutical Sciences, University of Vienna, Austria) were maintained in DMEM (high glucose) supplemented with 4 mM L-glutamine, 0.1 mg/mL human insulin (all purchased from Sigma-Aldrich) and 10% FBS. All cell lines were grown as monolayers in 75 cm^2 culture flasks (CytoOne, Starlab, Hamburg, Germany) at 37 °C in a humidified atmosphere containing 5% CO2.
(§2) Exponentially growing cells were plated into 96-well microculture plates (CytoOne, tissue culture treated, Starlab, Hamburg, Germany) in densities of 1 × 10^3 CH1/PA-1, 2 × 10^3 SW480, 3 × 10^3 A549 and 7 × 10^3 IMR-90 cells per well (each in 100 µL). After a 24 h preincubation, drugs were added in serial dilution to give a final volume of 200 µL/well and exposed for 96 h. At the end of the exposure, the drug solutions were replaced by 100 µL RPMI 1640/MTT mixture (7:1 ratio). MTT (3-(4,5-dimethylthiazol-2-yl)-2,5-diphenyl-2H-tetrazolium bromide), (Acros Organics, Geel, Belgium) solution was prepared in phosphate-buffered saline (5 mg/mL) and mixed with RPMI1640 medium supplemented with 4 mM L-glutamine (both from Sigma-Aldrich) and 10% FBS. After 4 h incubation, the formazan crystals were solubilized in 150 µL of DMSO per well. Absorbance was measured at 550 nm (and at 690 nm as a reference) with a microplate reader (ELx808, BioTek, Winoosky, VT, USA) and Gen5^TM 3.08 software (BioTek). The 50% inhibitory concentrations (IC50) relative to untreated controls were interpolated from concentration-effect curves. At least three biologically and technically independent experiments were performed.
(Tetrazolium dyes change colour on reduction, which living cells bring about.)

Data set [2] deals with SW480 (colon carcinoma) cells. The data set can be described thus: MTT cytotoxicity assay, SW480 monolayer. Format: cell-based, human. As for the experimental part: as §1, §2
For data set [3], the system named is CH1/PA-1 (ovarian teratocarcinoma) cells. The data set is described as follows: MTT cytotoxicity assay, CH1/PA-1 monolayer. Format: cell-based, human. As to conditions: exposure time 96 h, mean ± SD. As for the experimental part: as §1, §2
The nature of data set [4]: Solubility in PBS (1% DMSO). The data set is classed as physicochemical. As for the experimental part:
Stock solutions in DMSO of compounds 1–10 were utilized to determine the solubility in PBS by adding 1 vol% of the stock solution to a suitable amount of PBS. […] UV/Vis data were recorded on a Perkin Elmer Lambda 650 UV/Vis Spectrophotometer with a Peltier element for temperature control.

Data set [5] is described as follows: Cyclic voltammetry in MeCN (W(IV) to W(V)). The data set is classed as physicochemical. To be noted: vs. NHE, scan rate 200 mV/s. As for the experimental part: NMR spectra were recorded with a Bruker FT-NMR Avance III^TM 500 MHz spectrometer at 500.10 (^1H), and 125.75 MHz (^13C) using DMSO–d6. 2D-NMR measurements were recorded utilizing standard pulse programs COSY, HSQC and HMBC. The Microanalytical Laboratory of the University of Vienna performed the elemental analyses with a Eurovector EA 3000(2009) equipped with a high temperature pyrolysis furnace (HT, Hekatech, Germany, 2009). Elemental analyses’ samples were weighed (weights from 1–3 mg were used) on a Sartorius SEC 2 ultra-micro balance with ±0.1 µg resolution. Two NIST-certified reference materials were used for calibration: sulfanilamide (C6H8N2O2S) and BBOT (2,5-bis-(5-tert-butyl-2-benzoxazol-2-yl)-thiophenone, C26H26N2O2S). The limit of quantification (LOQ) was 0.05 w% for C, H, N and 0.02 w% for S. For samples without N and/or S, the content of these elements was determined and verified to be below the LOQ. X-ray diffraction analyses were carried out on a Bruker X8 APEX II CCD diffractometer at 100 K. ESI-MS were recorded on a Bruker AmaZon SL ion trap mass spectrometer (Bruker Daltonics GmbH). Data were obtained and processed with Compass 1.3 and Data Analysis 4.0 (Bruker Daltonics GmbH). Infrared spectra were attained on a Bruker Vertex 70 FT-IR-spectrometer with an ATR-unit (attenuated total reflection unit) in the range of 4000–600 cm^−1. Intensities of the reported bands are described with w for weak, m for medium and s for strong; broad signals are additionally specified with the letter b in front of these abbreviations. Cyclic voltammograms (CVs) were measured in a three-electrode cell using 2 mm diameter glassy carbon disk working electrode, a platinum auxiliary electrode and an Ag|Ag^+ reference electrode containing 0.1 M AgNO3. Measurements were carried out at room temperature using an EG&G PARC potentiostat/galvanostat 273A. The solutions were deoxygenized by purging a stream of argon for 3 min through the solution and the experiment was performed under an argon atmosphere. The potentials were measured in a freshly prepared solution of (n Bu4N)[BF4] (0.1 M) in acetonitrile using ferrocene (Fe(η^5-C5H5)2) (E1/2 = +0.72 V vs. NHE) as an internal standard and are quoted relative to the normal hydrogen electrode (NHE).
The electrochemical behavior of all complexes and the precursor Cp2WCl2 was studied by cyclic voltammetry with a scan rate of 200 mV/s, from −0.5 to +1.2 or +1.5 V. Measurements were performed in triplicate. Due to low water solubility of compounds 1–10 acetonitrile (MeCN) was utilized in order to reach the 2 mM concentration.

Data set [6] concerns A549 (non-small cell lung carcinoma) cells. As to conditions: MTT assay, 96 h; cited from earlier work.
Data set [7] deals with SW480 (colon carcinoma) cells. As to conditions: MTT assay, 96 h; cited from earlier work.
Data set [8] concerns CH1/PA-1 (ovarian teratocarcinoma) cells. To be noted: MTT assay, 96 h; cited from earlier work.

Where two headings read alike, the source gives them in different places.

On to `Cc1occc(=O)c1[O-].F[P-](F)(F)(F)(F)F.[W+4].c1cc[cH-]c1.c1cc[cH-]c1` [Compound 1, Bis(η^5-cyclopentadienyl)[2-methyl-3-(oxo-κO)-4-(1H)-pyran-4-ato-κO]tungsten(IV) hexafluorophosphate], for which the “activity in A549” value in data set [1] (96 h) is on record as “no activity was observed”. In addition, the IC50 was above 200 µM in data set [1] (exposure time 96 h, mean ± SD); above 200 µM in data set [2] (exposure time 96 h, mean ± SD); 85 ± 41 µM in data set [3]. The “activity in SW480” value in data set [2] (96 h) is given as “no activity was observed”. In data set [4], the “Solubility in PBS (1% DMSO)” value worked out at 0.23 mg/mL. For the same molecule, the E1/2 in data set [5] is 1.037 V.

Consider `[Cl-].[Cl-].[Mo+4].c1cc[cH-]c1.c1cc[cH-]c1` [Cp2MoCl2, Molybdenocene dichloride], for which the IC50 in data set [6], in data set [7] and in data set [8] was above 200 µM throughout.

Regarding `Cc1occc(=O)c1[O-].F[P-](F)(F)(F)(F)F.[Mo+4].c1cc[cH-]c1.c1cc[cH-]c1` [[Cp2Mo(L1)]PF6], the IC50 in data set [6], in data set [7] and in data set [8] was above 200 µM in each case.

With `Cc1occc(=S)c1[O-].F[P-](F)(F)(F)(F)F.[Mo+4].c1cc[cH-]c1.c1cc[cH-]c1` [[Cp2Mo(L2)]PF6], the IC50 was 106 ± 15 µM in data set [6], 55 ± 9 µM in data set [7] and 29 ± 10 µM in data set [8].

Regarding `F[P-](F)(F)(F)(F)F.O=c1c([O-])c(-c2ccc(Cl)cc2)oc2ccccc12.[Mo+4].c1cc[cH-]c1.c1cc[cH-]c1` [[Cp2Mo(L3)]PF6], the figures for the IC50 in data set [6], in data set [7] and in data set [8] were 24 ± 4 µM, 5.6 ± 0.2 µM and 1.7 ± 0.4 µM, respectively.

For `F[P-](F)(F)(F)(F)F.[Mo+4].[O-]c1c(-c2ccc(Cl)cc2)oc2ccccc2c1=S.c1cc[cH-]c1.c1cc[cH-]c1` [[Cp2Mo(L4)]PF6], the results for the IC50 in data set [6], in data set [7] and in data set [8] were 5.7 ± 1 µM, 1.6 ± 0.2 µM and 0.72 ± 0.13 µM, respectively.

Turning to `F[P-](F)(F)(F)(F)F.O=C([O-])c1ccccn1.[Mo+4].c1cc[cH-]c1.c1cc[cH-]c1` [[Cp2Mo(L5)]PF6], the IC50 in data set [6], in data set [7] and in data set [8] was above 200 µM throughout.

As usually defined, the IC50 is the midpoint of a concentration-inhibition curve.
